Test results taken from the supplement of paper PMC10307832.

Tests used:
Assay in all cases: relative viability (nuclei count vs DMSO), 5 days (fraction); higher = more cells survive
NCI-H2009 = system: NCI-H2009
Summary of the method: (§1)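 Values are medians from duplicate plates. Each reflects relative viability, defined as the nuclei count of treated wells over that of vehicle wells. Lung cancer cell lines in 1536-well plates were pin-tool dosed one day after seeding with one drug alone or with a fixed anchor-drug dose plus five library-drug doses (not always all listed) in √10 steps, then fixed, stained and imaged at 4× after 5 days.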

PC-3 [JPC-3] = system: PC-3 [JPC-3]
Summary of the method: as §1

HCC-827 = system: HCC-827
Summary of the method: as §1

LU99A = system: LU99A
Summary of the method: as §1

NCI-H2126 = system: NCI-H2126
Summary of the method: as §1

SK-MES-1 = system: SK-MES-1
Summary of the method: as §1

BEN = system: BEN
Summary of the method: as §1

HCC-366 = system: HCC-366
Summary of the method: as §1

COR-L 105 = system: COR-L 105
Summary of the method: as §1

HCC-15 = system: HCC-15
Summary of the method: as §1

NCI-H1993 = system: NCI-H1993
Summary of the method: as §1

LCLC-97TM1 = system: LCLC-97TM1
Summary of the method: as §1

NCI-H2087 = system: NCI-H2087
Summary of the method: as §1

NCI-H727 = system: NCI-H727
Summary of the method: as §1

LXF-289 = system: LXF-289
Summary of the method: as §1

HARA = system: HARA
Summary of the method: as §1

LC-2-ad = system: LC-2-ad
Summary of the method: as §1

CAL-12T = system: CAL-12T
Summary of the method: as §1

PC-14 = system: PC-14
Summary of the method: as §1

HOP-62 = system: HOP-62
Summary of the method: as §1

COR-L23 = system: COR-L23
Summary of the method: as §1

HCC-44 = system: HCC-44
Summary of the method: as §1

SMILES: O=c1[nH]c2ccccc2n1C1CCN(CCCC(c2ccc(F)cc2)c2ccc(F)cc2)CC1 [Pimozide] + C[C@]1(O)C[C@@H](c2nc(-c3ccc4ccc(-c5ccccc5)nc4c3)c3c(N)nccn32)C1 [Linsitinib] (partner 1 µM)
- relative viability (NCI-H2009; first compound 0.08 µM): 1.19
- relative viability (NCI-H2009; first compound 0.253 µM): 1.21
- relative viability (NCI-H2009; first compound 0.8 µM): 1.2
- relative viability (NCI-H2009; first compound 2.53 µM): 1.2
- relative viability (NCI-H2009; first compound 8 µM): 1.01
- relative viability (PC-3 [JPC-3]; first compound 0.253 µM): 0.985
- relative viability (PC-3 [JPC-3]; first compound 0.8 µM): 0.896
- relative viability (PC-3 [JPC-3]; first compound 2.53 µM): 0.983
- relative viability (PC-3 [JPC-3]; first compound 8 µM): 0.883
- relative viability (HCC-827; first compound 0.253 µM): 0.986
- relative viability (HCC-827; first compound 0.8 µM): 0.915
- relative viability (HCC-827; first compound 2.53 µM): 0.944
- relative viability (HCC-827; first compound 8 µM): 0.939
- relative viability (LU99A; first compound 0.08 µM): 0.544
- relative viability (LU99A; first compound 0.253 µM): 0.409
- relative viability (LU99A; first compound 0.8 µM): 0.514
- relative viability (LU99A; first compound 2.53 µM): 0.596
- relative viability (LU99A; first compound 8 µM): 0.504
- relative viability (NCI-H2126; first compound 0.08 µM): 0.747
- relative viability (NCI-H2126; first compound 0.253 µM): 0.662
- relative viability (NCI-H2126; first compound 0.8 µM): 0.713
- relative viability (NCI-H2126; first compound 2.53 µM): 0.74
- relative viability (NCI-H2126; first compound 8 µM): 0.774
- relative viability (SK-MES-1; first compound 0.08 µM): 0.993
- relative viability (SK-MES-1; first compound 0.253 µM): 1.04
- relative viability (SK-MES-1; first compound 0.8 µM): 1.07
- relative viability (SK-MES-1; first compound 2.53 µM): 1.11
- relative viability (SK-MES-1; first compound 8 µM): 1.09
- relative viability (BEN; first compound 0.08 µM): 1.07
- relative viability (BEN; first compound 0.253 µM): 1.02
- relative viability (BEN; first compound 0.8 µM): 0.856
- relative viability (BEN; first compound 2.53 µM): 0.88
- relative viability (BEN; first compound 8 µM): 0.892
- relative viability (HCC-366; first compound 0.08 µM): 0.747
- relative viability (HCC-366; first compound 0.253 µM): 0.67
- relative viability (HCC-366; first compound 0.8 µM): 0.7
- relative viability (HCC-366; first compound 2.53 µM): 0.754
- relative viability (HCC-366; first compound 8 µM): 0.677
- relative viability (COR-L 105; first compound 0.253 µM): 1.01
- relative viability (COR-L 105; first compound 0.8 µM): 0.795
- relative viability (COR-L 105; first compound 2.53 µM): 0.844
- relative viability (COR-L 105; first compound 8 µM): 0.562
- relative viability (HCC-15; first compound 0.08 µM): 0.91
- relative viability (HCC-15; first compound 0.253 µM): 0.911
- relative viability (HCC-15; first compound 0.8 µM): 0.847
- relative viability (HCC-15; first compound 2.53 µM): 0.744
- relative viability (HCC-15; first compound 8 µM): 0.796
- relative viability (NCI-H1993; first compound 0.08 µM): 0.662
- relative viability (NCI-H1993; first compound 0.253 µM): 0.659
- relative viability (NCI-H1993; first compound 0.8 µM): 0.571
- relative viability (NCI-H1993; first compound 2.53 µM): 0.725
- relative viability (NCI-H1993; first compound 8 µM): 0.755
- relative viability (LCLC-97TM1; first compound 0.08 µM): 0.179
- relative viability (LCLC-97TM1; first compound 0.253 µM): 0.166
- relative viability (LCLC-97TM1; first compound 0.8 µM): 0.171
- relative viability (LCLC-97TM1; first compound 2.53 µM): 0.169
- relative viability (LCLC-97TM1; first compound 8 µM): 0.146
- relative viability (NCI-H2087; first compound 0.08 µM): 0.904
- relative viability (NCI-H2087; first compound 0.253 µM): 0.869
- relative viability (NCI-H2087; first compound 0.8 µM): 0.917
- relative viability (NCI-H2087; first compound 2.53 µM): 1.04
- relative viability (NCI-H2087; first compound 8 µM): 0.96
- relative viability (NCI-H727; first compound 0.08 µM): 0.285
- relative viability (NCI-H727; first compound 0.253 µM): 0.337
- relative viability (NCI-H727; first compound 0.8 µM): 0.307
- relative viability (NCI-H727; first compound 2.53 µM): 0.281
- relative viability (NCI-H727; first compound 8 µM): 0.526
- relative viability (LXF-289; first compound 0.08 µM): 0.928
- relative viability (LXF-289; first compound 0.253 µM): 0.902
- relative viability (LXF-289; first compound 0.8 µM): 0.964
- relative viability (LXF-289; first compound 2.53 µM): 0.946
- relative viability (LXF-289; first compound 8 µM): 0.886
- relative viability (HARA; first compound 0.08 µM): 0.944
- relative viability (HARA; first compound 0.253 µM): 0.981
- relative viability (HARA; first compound 0.8 µM): 0.823
- relative viability (HARA; first compound 2.53 µM): 0.92
- relative viability (HARA; first compound 8 µM): 0.748
- relative viability (LC-2-ad; first compound 0.08 µM): 0.818
- relative viability (LC-2-ad; first compound 0.253 µM): 0.819
- relative viability (LC-2-ad; first compound 0.8 µM): 0.797
- relative viability (LC-2-ad; first compound 2.53 µM): 0.891
- relative viability (LC-2-ad; first compound 8 µM): 0.746
- relative viability (CAL-12T; first compound 0.08 µM): 0.745
- relative viability (CAL-12T; first compound 0.253 µM): 0.803
- relative viability (CAL-12T; first compound 0.8 µM): 0.936
- relative viability (CAL-12T; first compound 2.53 µM): 0.755
- relative viability (CAL-12T; first compound 8 µM): 0.788
- relative viability (PC-14; first compound 0.253 µM): 0.94
- relative viability (PC-14; first compound 0.8 µM): 0.99
- relative viability (PC-14; first compound 2.53 µM): 0.938
- relative viability (PC-14; first compound 8 µM): 0.91
- relative viability (HOP-62; first compound 0.08 µM): 0.847
- relative viability (HOP-62; first compound 0.253 µM): 0.839
- relative viability (HOP-62; first compound 2.53 µM): 1.04
- relative viability (HOP-62; first compound 8 µM): 0.754
- relative viability (COR-L23; first compound 0.08 µM): 0.956
- relative viability (COR-L23; first compound 0.253 µM): 0.76
- relative viability (COR-L23; first compound 0.8 µM): 0.832
- relative viability (COR-L23; first compound 2.53 µM): 0.887
- relative viability (COR-L23; first compound 8 µM): 0.84
- relative viability (HCC-44; first compound 0.08 µM): 0.635
- relative viability (HCC-44; first compound 0.253 µM): 0.703
- relative viability (HCC-44; first compound 0.8 µM): 0.64
- relative viability (HCC-44; first compound 2.53 µM): 0.653
- relative viability (HCC-44; first compound 8 µM): 0.685
